Measurements: a compilation of properties of binary mixtures (doi:10.1016/j.molliq.2021.116805)

Assay: xn = mol fraction of the nth substance listed
Details: 101 kPa

CCCCCCCCCCCCCCCCCC[n+]1ccn(C)c1.O=S(=O)([N-]S(=O)(=O)C(F)(F)F)C(F)(F)F + CCCCCCCCCCCCCCCCn1cc[n+](C)c1.O=S(=O)([N-]S(=O)(=O)C(F)(F)F)C(F)(F)F
viscosity (333 K, x2 = 0.621): 59.3 mPa·s | viscosity (343 K, x2 = 0.621): 41.1 mPa·s | viscosity (353 K, x2 = 0.621): 29.6 mPa·s

CCCCCCCCCCCCCC[n+]1ccn(C)c1.O=S(=O)([N-]S(=O)(=O)C(F)(F)F)C(F)(F)F + CCCCCCCCCCCCCCCCn1cc[n+](C)c1.O=S(=O)([N-]S(=O)(=O)C(F)(F)F)C(F)(F)F
viscosity (313 K, x1 = 0.6709): 102.6 mPa·s | viscosity (323 K, x1 = 0.6709): 66.3 mPa·s | viscosity (333 K, x1 = 0.6709): 45.2 mPa·s | viscosity (343 K, x1 = 0.6709): 32 mPa·s | viscosity (353 K, x1 = 0.6709): 23.4 mPa·s

CCCCCCCCCCCCCCCCCC[n+]1ccn(C)c1.O=S(=O)([N-]S(=O)(=O)C(F)(F)F)C(F)(F)F + CCCCCCCCCCCCCC[n+]1ccn(C)c1.O=S(=O)([N-]S(=O)(=O)C(F)(F)F)C(F)(F)F
viscosity (333 K, x2 = 0.7675): 49.6 mPa·s | viscosity (343 K, x2 = 0.7675): 34.8 mPa·s | viscosity (353 K, x2 = 0.7675): 25.4 mPa·s
